Assay results published in US4208514A, “4(3H)-Oxobenzo-2,1,3-thiadiazine-2,2-dioxides” (The Dow Chemical Company, priority 1976, dated 1980).

How the values were obtained:
Assay type in all cases: in vivo
Cotton = assay: Selective post-emergent greenhouse test, Cotton (crop injury); details: for plant injury at 358.672 g/ha / plant injury at 706.135 g/ha: Gossypium hirsutum, post-emergence, 336 h, 2 weeks, crop, read-out: % Control Cotton; for plant injury at 358.672 g/ha: 0.32 lbs/acre; for plant injury at 706.135 g/ha: 0.63 lbs/acre
Description: (§1) So as to illustrate clearly the phytotoxic properties of the various active ingredients of the present invention, a group of controlled greenhouse experiments is described below.
(§2) Various species of plants, both broadleaf weeds and valuable crops, were planted in beds of good agricultural soil in a greenhouse. After the plants had emerged and grown to a height of about 2-6 inches, a portion of the plants were sprayed with an aqueous mixture, made by mixing a selected active ingredient and emulsifier or dispersant with water to provide solution containing 250 or 125 ppm active ingredient, employing sufficient amounts of the treating composition to provide low post emergent application rates of about 0.63 or 0.32 pounds per acre. Other portions of the plants were left untreated to serve as controls. In each test the active ingredient was a 3-methylethyl-1H-2,1,3-benzothiadiazin-4(3H)-one-2,2-dioxide having a substituent in the one position according to the invention.
(§3) After a period of 2 weeks the selective effect of the test ingredient on the plants was evaluated by a comparison with the control group of plants.

Soybean = assay: Selective post-emergent greenhouse test, Soybean (crop injury); details: Glycine max, post-emergence, 336 h, 2 weeks, read-out: % Control Soybean; for plant injury at 358.672 g/ha: 0.32 lbs/acre; for plant injury at 706.135 g/ha: 0.63 lbs/acre
Description: as §1, §2, §3

Velvet Leaf [1] = assay: Selective post-emergent greenhouse test, Velvet Leaf; details: for pest or weed control at 358.672 g/ha / pest or weed control at 706.135 g/ha: post-emergence, 336 h, 2 weeks; for pest or weed control at 358.672 g/ha: 0.32 lbs/acre; for pest or weed control at 706.135 g/ha: 0.63 lbs/acre
Description: as §1, §2, §3

Jimson Weed = assay: Selective post-emergent greenhouse test, Jimson Weed; details: post-emergence, 336 h, 2 weeks; for pest or weed control at 358.672 g/ha: 0.32 lbs/acre; for pest or weed control at 706.135 g/ha: 0.63 lbs/acre
Description: as §1, §2, §3

Velvet Leaf [2] = assay: General post-emergent herbicidal activity at 10 lbs/acre, Velvet Leaf; details: post-emergence, 336 h
Description: as §2, with “[…], […]” for “emulsifier or dispersant with water to provide solution containing 250 or 125 ppm active ingredient, employing sufficient amounts of the treating composition to provide low post emergent application rates of about 0.63 or 0.32 pounds per acre.”
as §3

Annual Morning Glory = assay: General post-emergent herbicidal activity at 10 lbs/acre, Annual Morning Glory; details: Ipomoea, post-emergence, 336 h
Description: as §2, with “[…], […]” for “emulsifier or dispersant with water to provide solution containing 250 or 125 ppm active ingredient, employing sufficient amounts of the treating composition to provide low post emergent application rates of about 0.63 or 0.32 pounds per acre.”
as §3

Nutsedge = assay: General post-emergent herbicidal activity at 10 lbs/acre, Nutsedge; details: Cyperus, post-emergence, 336 h
Description: as §2, with “[…], […]” for “emulsifier or dispersant with water to provide solution containing 250 or 125 ppm active ingredient, employing sufficient amounts of the treating composition to provide low post emergent application rates of about 0.63 or 0.32 pounds per acre.”
as §3

| SMILES | plant injury at 358.672 g/ha (Cotton; post-emergent) [%] | plant injury at 706.135 g/ha (Cotton; post-emergent) [%] | plant injury at 358.672 g/ha (Soybean) [%] | plant injury at 706.135 g/ha (Soybean) [%] | pest or weed control at 358.672 g/ha (Velvet Leaf [1]) [%] | pest or weed control at 706.135 g/ha (Velvet Leaf [1]) [%] | pest or weed control at 358.672 g/ha (Jimson Weed) [%] | pest or weed control at 706.135 g/ha (Jimson Weed) [%] | pest or weed control at 11208.5 g/ha (Velvet Leaf [2]) [%] | pest or weed control at 11208.5 g/ha (Annual Morning Glory) [%] | pest or weed control at 11208.5 g/ha (Nutsedge) [%] | damage to cotton at dosage rates at which velvet leaf is controlled (Cotton; comparison compound, in general) | control of cotton (Cotton; comparison test, about 0.32 pounds per acre, post-emergent) [%] | control of velvet leaf (Velvet Leaf [1]; comparison test, about 0.32 pounds per acre) |
| --- | --- | --- | --- | --- | --- | --- | --- | --- | --- | --- | --- | --- | --- | --- |
| CC(C)N1C(=O)c2ccccc2N(C(=O)c2ccccc2)S1(=O)=O | 0 | 0 | 0 | 0 | 0 | 0 | 80 | 80 |  |  |  |  |  |  |
| CC(C)N1C(=O)c2ccccc2N(C(=O)OCCCl)S1(=O)=O [CO2 CH2 CH2 Cl] | 10 | 10 | 0 | 0 | 95 | 100 | 80 | 100 |  |  |  |  |  |  |
| CCC(C)OC(=O)N1c2ccccc2C(=O)N(C(C)C)S1(=O)=O (stereo not shown) | 30 | 30 | 0 | 0 | 100 | 100 | 100 | 100 |  |  |  |  |  |  |
| CCCC(C)C(=O)N1c2ccccc2C(=O)N(C(C)C)S1(=O)=O (stereo not shown) [COCH(CH3)CH2 CH2 CH3, 1H-2,1,3-Benzothiadiazin-4(3H)-one: 3-(1-methylethyl)-1-(2-methyl-1-oxopentyl)-; 2,2-dioxide] |  |  |  |  |  |  |  |  | 100 | 100 | 95 |  |  |  |
| CCC(=O)N1c2ccccc2C(=O)N(C(C)C)S1(=O)=O [COC2 H5, 1H-2,1,3-Benzothiadiazin-4(3H)-one: 3-(1-methylethyl)-1-(1-oxopropyl)-; 2,2-dioxide] | 0 | 100 | 0 | 0 | 100 | 100 |  |  |  |  |  |  |  |  |
| CC(C)N1C(=O)c2ccccc2N(C(=O)C(C)(C)C)S1(=O)=O [COC(CH3)3, 3-(1-Methylethyl)-1-(2,2-dimethyl-1-oxopropyl)-1H-2,1,3- -benzothiadiazin-4(3H)-one-2,2-dioxide] | 0 | 40 | 0 | 0 | 80 | 100 | 70 | 100 |  |  |  |  |  |  |
| CC(C)N1C(=O)c2ccccc2N(S(=O)(=O)N(C)C)S1(=O)=O [SO2 N(CH3)2, 1H-2,1,3-Benzothiadiazin-4-(3H)-one; 1-Dimethylsulfamoyl-3-(1-methylethyl)-2,2-dioxide] | 5 | 70 | 0 | 0 | 70 | 50 |  | 100 |  |  |  |  |  |  |
| CC(C)N1C(=O)c2ccccc2NS1(=O)=O [3-methylethyl-1H-2,1,3-benzothiadiazin-4(3H)-one-2,2-dioixde, reference compound] |  |  |  |  |  |  |  |  |  |  |  | cotton suffers substantial damage | 90 | control of velvet leaf was obtained |
| COC(=O)CCC(=O)N1c2ccccc2C(=O)N(C(C)C)S1(=O)=O [COCH2 CH2 CO2 CH3, 1H-2,1,3-Benzothiadiazin-1-butanoic acid; γ,4-Dioxo-3-(1-methylethyl)-3,4-dihydro-, methyl ester; 2,2-dioxide] |  |  |  |  |  |  |  |  | 100 | 100 | 95 |  |  |  |
| CC(C)N1C(=O)c2ccccc2N(C(=O)CC(C)(C)C)S1(=O)=O [COCH2 C(CH3)3, 1H-2,1,3-Benzothiadiazin-4(3H)-one: 1-(3,3-dimethyl-1-oxobutyl)-3-(1-methylethyl)-; 2,2-dioxide] | 0 | 0 | 0 | 0 | 100 | 100 | 90 | 100 |  |  |  |  |  |  |
| CCN(CC)C(=O)N1c2ccccc2C(=O)N(C(C)C)S1(=O)=O [CON(C2 H5)2] | 10 | 90 | 0 | 0 | 0 | 20 | 100 | 100 |  |  |  |  |  |  |
| CC(Br)C(=O)N1c2ccccc2C(=O)N(C(C)C)S1(=O)=O (stereo not shown) [COCHBrCH3, 1H-2,1,3-Benzothiadiazin-4(3H)-one: 1-(2-Bromo-1-oxopropyl)-3-(1-methylethyl)-; 2,2-dioxide] | 0 | 4 | 0 | 0 | 100 | 100 | 100 | 100 |  |  |  |  |  |  |
| CCOC(=O)N1c2ccccc2C(=O)N(C(C)C)S1(=O)=O [CO2 CH2 CH3] | 10 | 30 | 0 | 0 | 70 | 100 | 100 | 100 |  |  |  |  |  |  |
| CC(C)N1C(=O)c2ccccc2N(S(=O)(=O)c2ccccc2)S1(=O)=O | 0 | 0 | 0 | 0 | 0 | 30 | 100 | 100 |  |  |  |  |  |  |
| CC(C)N1C(=O)c2ccccc2N(C(=O)C2CCCCC2)S1(=O)=O | 0 | 100 | 0 | 0 | 0 | 100 | 100 | 100 |  |  |  |  |  |  |
| CCCCCCCCCCCC(=O)N1c2ccccc2C(=O)N(C(C)C)S1(=O)=O [CO(CH2)10 CH3, 3-(1-Methylethyl)-1-(1-oxododecanyl)-1H-2,1,3-benzothiadiazin-4 (3H)-one-2,2-dioxide] | 0 | 20 | 0 | 0 | 60 | 70 | 100 | 100 |  |  |  |  |  |  |
| CC(C)N1C(=O)c2ccccc2N(C(=O)N(C)C)S1(=O)=O [CON(CH3)2, 1H-2,1,3-Benzothiadiazine-1-carboxamide: N,N-Dimethyl-3,4-dihydro-3-(1-methylethyl)-4-oxo-, 2,2-dioxide] |  | 40 | 0 | 0 | 40 | 95 | 100 | 100 |  |  |  |  |  |  |
| CC(C)C(=O)N1c2ccccc2C(=O)N(C(C)C)S1(=O)=O [COCH(CH3)2, 1H-2,1,3-Benzothiadiazin-4 (3H)-one:3-(1-methylethyl)-1-(2- -methyl-1-oxopropyl)-2,2-dioxide] |  |  |  |  |  |  |  |  | 100 | 100 | 95 |  |  |  |
| COC(=O)CCC(=O)N1c2ccccc2C(=O)N(C(C)C)S1(=O)=O [drawing 13] | 0 | 60 | 0 | 0 | 70 | 100 | 100 | 100 |  |  |  |  |  |  |
| CC(C)COC(=O)N1c2ccccc2C(=O)N(C(C)C)S1(=O)=O [CO2 CH2 CH(CH3)2, 1H-2,1,3-Benzothiadiazine-1-carboxylic Acid: 3,4-Dihydro-3-(1-methylethyl)-4-oxo-, 2-Methylpropyl Ester, 2,2-Dioxide] | 0 | 0 | 10 | 10 | 100 | 100 | 100 | 100 |  |  |  |  |  |  |
